A word on the ΔTm: it is the shift of the melting midpoint relative to a reference.

Data on one compound can be found in ChEMBL document CHEMBL5715956, “Selective Targeting of Bromodomains of the Bromodomain-PHD Fingers Family Impairs Osteoclast Differentiation” (ACS Chem Biol, 2017).

The target in test [1] is Transcription intermediary factor 1-beta (Homo sapiens) (UniProt Q13263). The note with it: dose 10.0 µM.
In test [2] the target is Protein polybromo-1 (Homo sapiens) (UniProt Q86U86). The note with it: dose 10.0 µM.
The target in test [3] is Bromodomain-containing protein 3 (Homo sapiens) (UniProt Q15059). The note with it: dose 10.0 µM.
Test [4] deals with Adrenergic receptor alpha-2 (Homo sapiens) (UniProt P08913+P18825+P18089). The test is described as follows: Binding affinity to Alpha 2 receptor (unknown origin) assessed as specific binding at 10 uM relative to control. It is filed as protein assay.
The target of test [5] is Histone-lysine N-methyltransferase 2A (Homo sapiens) (UniProt Q03164). The note with it: dose 10.0 µM.
Test [6] deals with Bromodomain testis-specific protein (Homo sapiens) (UniProt Q58F21). The settings on record: dose 10.0 µM.
Test [7] deals with Beta-1 adrenergic receptor (Homo sapiens) (UniProt P08588). The test is described as follows: Binding affinity to Beta1 (unknown origin) assessed as specific binding at 10 uM relative to control.
Test [8] addresses T1, Peregrin (Homo sapiens) (UniProt P55201).
T1 sequence (whole entry): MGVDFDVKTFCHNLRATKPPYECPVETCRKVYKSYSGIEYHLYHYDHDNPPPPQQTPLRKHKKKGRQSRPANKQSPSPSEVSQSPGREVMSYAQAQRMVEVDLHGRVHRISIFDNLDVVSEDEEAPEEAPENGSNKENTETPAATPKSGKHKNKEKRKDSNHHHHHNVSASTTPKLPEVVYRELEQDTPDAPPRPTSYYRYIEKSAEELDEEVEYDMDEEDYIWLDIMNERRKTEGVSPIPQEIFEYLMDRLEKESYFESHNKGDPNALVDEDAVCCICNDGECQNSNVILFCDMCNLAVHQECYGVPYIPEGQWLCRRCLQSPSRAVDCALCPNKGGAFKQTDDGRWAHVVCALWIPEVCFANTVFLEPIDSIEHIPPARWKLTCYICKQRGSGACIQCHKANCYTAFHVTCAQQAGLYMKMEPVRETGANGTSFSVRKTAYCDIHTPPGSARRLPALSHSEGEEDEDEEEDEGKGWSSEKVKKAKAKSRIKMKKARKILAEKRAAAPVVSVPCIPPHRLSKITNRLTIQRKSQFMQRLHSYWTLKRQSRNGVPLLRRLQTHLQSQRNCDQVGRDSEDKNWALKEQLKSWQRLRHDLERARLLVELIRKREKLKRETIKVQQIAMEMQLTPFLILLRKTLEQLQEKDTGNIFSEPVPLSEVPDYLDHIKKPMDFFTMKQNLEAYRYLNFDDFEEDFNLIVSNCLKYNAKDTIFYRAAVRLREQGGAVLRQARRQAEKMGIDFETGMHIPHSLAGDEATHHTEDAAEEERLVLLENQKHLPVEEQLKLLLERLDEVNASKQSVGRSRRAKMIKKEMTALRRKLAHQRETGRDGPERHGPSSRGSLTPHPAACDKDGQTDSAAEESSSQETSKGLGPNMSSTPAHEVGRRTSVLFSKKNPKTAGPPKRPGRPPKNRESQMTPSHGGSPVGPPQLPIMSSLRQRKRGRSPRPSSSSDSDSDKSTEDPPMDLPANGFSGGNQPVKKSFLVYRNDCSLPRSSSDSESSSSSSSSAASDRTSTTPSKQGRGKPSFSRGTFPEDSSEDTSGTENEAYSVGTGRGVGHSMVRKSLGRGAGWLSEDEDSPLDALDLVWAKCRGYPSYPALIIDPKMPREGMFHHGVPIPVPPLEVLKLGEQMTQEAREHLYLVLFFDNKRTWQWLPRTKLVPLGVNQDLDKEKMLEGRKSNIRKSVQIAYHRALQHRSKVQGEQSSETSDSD
The experiment in a line: Binding affinity to […] (unknown origin) assessed as change in entropy at 17 uM by Isothermal titration calorimetry. In general terms: ITC needs no label: the signal is the heat of the interaction.

Test [9] concerns the target T1, Peregrin (Homo sapiens). The experiment in a line: Binding affinity to […] (unknown origin) assessed as change in entropy TdeltaS at 17 uM by Isothermal titration calorimetry.
Test [10] concerns the target Transcription initiation factor TFIID subunit 1 (Homo sapiens) (UniProt P21675). The settings on record: dose 10.0 µM.
For another test, the species on record is Homo sapiens. The note with it: dose 10.0 µM.
Test [11] concerns the target Bromodomain testis-specific protein (Homo sapiens) (UniProt Q58F21). The note with it: dose 10.0 µM. This is another data set of the same source.
Test [12] concerns the target Transcription intermediary factor 1-alpha (Homo sapiens) (UniProt O15164). The note with it: dose 10.0 µM.
In test [13] the target is Bromodomain adjacent to zinc finger domain protein 1A (Homo sapiens) (UniProt Q9NRL2). The settings on record: dose 10.0 µM.
The target in test [14] is Chromatin remodeling regulator CECR2 (Homo sapiens) (UniProt Q9BXF3). The note with it: dose 10.0 µM.

The structures appear in SMILES notation.

Sequence of Transcription intermediary factor 1-beta (Homo sapiens) (Q13263 whole entry): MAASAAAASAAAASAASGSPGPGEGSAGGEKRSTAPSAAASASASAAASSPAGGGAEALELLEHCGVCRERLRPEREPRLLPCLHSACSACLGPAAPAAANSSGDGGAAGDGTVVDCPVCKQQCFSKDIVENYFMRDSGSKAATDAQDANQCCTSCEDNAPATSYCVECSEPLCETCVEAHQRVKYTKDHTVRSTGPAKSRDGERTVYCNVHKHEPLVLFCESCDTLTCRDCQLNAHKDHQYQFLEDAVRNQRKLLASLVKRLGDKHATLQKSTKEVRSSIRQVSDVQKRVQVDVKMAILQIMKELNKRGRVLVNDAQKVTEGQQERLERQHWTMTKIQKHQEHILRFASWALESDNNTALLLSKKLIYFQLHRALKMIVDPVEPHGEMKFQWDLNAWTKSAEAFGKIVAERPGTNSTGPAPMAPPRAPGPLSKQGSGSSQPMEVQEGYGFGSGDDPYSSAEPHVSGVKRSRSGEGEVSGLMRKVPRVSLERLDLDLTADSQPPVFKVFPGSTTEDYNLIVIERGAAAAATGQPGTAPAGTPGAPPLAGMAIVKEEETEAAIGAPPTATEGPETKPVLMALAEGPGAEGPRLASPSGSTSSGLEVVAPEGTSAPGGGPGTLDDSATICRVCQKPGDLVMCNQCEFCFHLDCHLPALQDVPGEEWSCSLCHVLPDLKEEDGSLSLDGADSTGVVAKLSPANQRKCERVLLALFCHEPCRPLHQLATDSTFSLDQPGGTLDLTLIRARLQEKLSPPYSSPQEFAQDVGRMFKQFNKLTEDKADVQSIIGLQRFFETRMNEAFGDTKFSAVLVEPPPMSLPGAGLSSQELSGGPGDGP
Sequence of Protein polybromo-1 (Homo sapiens) (Q86U86 whole entry): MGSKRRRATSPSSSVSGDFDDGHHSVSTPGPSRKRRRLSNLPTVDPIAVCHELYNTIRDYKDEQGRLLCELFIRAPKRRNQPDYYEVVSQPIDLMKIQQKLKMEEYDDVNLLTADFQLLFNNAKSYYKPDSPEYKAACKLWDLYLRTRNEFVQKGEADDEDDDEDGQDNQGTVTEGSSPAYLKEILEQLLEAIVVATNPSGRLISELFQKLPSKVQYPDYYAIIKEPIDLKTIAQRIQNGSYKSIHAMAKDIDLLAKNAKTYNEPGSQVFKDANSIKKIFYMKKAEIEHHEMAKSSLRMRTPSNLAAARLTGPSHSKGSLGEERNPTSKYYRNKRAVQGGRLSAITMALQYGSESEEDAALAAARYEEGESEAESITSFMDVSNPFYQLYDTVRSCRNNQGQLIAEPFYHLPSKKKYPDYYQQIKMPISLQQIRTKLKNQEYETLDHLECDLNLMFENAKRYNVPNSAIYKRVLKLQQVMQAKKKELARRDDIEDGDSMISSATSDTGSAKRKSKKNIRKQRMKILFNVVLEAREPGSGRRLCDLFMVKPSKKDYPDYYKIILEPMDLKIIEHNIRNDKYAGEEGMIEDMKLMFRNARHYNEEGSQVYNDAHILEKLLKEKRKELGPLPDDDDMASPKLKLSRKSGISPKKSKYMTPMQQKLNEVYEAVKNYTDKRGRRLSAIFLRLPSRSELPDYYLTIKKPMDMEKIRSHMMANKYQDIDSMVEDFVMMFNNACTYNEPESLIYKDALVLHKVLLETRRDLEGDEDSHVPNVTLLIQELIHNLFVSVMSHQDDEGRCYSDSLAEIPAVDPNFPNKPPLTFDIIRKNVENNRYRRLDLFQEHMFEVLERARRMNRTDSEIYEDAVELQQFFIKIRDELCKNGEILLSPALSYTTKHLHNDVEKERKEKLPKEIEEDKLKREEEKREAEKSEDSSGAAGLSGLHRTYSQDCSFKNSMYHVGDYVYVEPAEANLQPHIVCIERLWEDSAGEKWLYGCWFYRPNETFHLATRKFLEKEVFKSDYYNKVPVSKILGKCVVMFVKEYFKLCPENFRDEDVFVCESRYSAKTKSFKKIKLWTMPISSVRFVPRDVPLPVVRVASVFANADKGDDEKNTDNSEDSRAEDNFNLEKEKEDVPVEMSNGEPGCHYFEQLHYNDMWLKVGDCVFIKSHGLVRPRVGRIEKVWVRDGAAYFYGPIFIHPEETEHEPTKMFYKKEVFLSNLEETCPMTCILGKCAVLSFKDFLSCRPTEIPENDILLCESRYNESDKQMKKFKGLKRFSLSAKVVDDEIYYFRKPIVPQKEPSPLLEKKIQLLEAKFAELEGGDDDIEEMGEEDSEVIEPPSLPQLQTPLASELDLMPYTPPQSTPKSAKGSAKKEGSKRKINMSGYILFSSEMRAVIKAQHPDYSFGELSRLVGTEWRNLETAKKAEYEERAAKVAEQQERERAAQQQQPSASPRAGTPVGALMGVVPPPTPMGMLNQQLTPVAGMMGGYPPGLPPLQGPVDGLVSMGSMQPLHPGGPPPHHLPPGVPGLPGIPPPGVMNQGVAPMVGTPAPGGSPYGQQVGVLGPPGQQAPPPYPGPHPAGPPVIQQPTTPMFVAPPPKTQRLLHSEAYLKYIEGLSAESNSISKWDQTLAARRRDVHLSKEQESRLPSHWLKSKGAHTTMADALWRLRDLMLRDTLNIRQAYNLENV
Sequence of Transcription initiation factor TFIID subunit 1 (Homo sapiens) (P21675 whole entry): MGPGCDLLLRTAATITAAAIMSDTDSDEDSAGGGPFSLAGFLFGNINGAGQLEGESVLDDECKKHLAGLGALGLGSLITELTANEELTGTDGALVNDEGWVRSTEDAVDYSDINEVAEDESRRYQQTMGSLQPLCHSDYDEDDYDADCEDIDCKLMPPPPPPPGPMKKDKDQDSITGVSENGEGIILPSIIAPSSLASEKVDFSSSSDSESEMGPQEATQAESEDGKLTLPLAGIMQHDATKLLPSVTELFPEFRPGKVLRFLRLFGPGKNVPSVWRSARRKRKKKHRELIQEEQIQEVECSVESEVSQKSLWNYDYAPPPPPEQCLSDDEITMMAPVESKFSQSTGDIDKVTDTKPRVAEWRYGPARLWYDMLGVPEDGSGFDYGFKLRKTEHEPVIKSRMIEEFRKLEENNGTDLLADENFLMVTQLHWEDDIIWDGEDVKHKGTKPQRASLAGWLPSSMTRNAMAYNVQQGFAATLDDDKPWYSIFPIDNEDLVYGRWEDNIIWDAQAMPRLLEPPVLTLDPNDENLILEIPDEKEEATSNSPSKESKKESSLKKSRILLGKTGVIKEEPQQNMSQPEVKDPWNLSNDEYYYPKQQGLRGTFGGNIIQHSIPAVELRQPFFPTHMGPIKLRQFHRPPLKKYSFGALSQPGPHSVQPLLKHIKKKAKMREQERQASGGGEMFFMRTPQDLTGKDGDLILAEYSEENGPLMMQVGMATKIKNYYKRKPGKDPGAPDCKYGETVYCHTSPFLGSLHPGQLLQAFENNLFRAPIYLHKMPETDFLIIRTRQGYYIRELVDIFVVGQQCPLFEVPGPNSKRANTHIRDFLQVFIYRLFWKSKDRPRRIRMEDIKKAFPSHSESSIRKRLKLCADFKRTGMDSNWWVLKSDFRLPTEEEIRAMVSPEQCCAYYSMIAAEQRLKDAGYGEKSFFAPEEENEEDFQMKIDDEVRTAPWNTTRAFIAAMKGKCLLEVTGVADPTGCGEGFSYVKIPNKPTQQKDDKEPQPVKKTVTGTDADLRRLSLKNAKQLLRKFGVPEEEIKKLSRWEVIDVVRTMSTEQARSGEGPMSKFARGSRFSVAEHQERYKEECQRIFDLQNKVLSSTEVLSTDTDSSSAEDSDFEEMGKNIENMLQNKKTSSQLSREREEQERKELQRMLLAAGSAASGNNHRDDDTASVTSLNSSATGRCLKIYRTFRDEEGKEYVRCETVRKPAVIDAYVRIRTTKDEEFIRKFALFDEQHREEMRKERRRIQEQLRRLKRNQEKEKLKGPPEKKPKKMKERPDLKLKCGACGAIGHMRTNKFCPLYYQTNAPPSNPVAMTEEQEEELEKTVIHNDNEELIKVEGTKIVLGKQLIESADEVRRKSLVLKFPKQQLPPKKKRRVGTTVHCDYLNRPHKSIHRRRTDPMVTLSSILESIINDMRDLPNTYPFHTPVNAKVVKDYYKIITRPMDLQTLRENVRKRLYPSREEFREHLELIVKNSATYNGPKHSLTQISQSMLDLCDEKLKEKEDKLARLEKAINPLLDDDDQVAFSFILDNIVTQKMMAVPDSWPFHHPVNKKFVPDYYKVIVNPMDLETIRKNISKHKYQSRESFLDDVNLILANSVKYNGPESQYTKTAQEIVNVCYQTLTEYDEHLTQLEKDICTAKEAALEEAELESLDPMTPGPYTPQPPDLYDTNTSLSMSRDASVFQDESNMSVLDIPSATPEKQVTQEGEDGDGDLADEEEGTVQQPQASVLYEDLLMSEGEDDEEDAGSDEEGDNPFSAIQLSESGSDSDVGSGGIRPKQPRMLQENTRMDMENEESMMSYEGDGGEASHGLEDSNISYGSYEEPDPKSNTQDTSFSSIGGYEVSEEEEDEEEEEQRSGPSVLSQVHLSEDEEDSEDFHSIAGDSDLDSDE
Sequence of Bromodomain-containing protein 3 (Homo sapiens) (Q15059 2-726 limits assumed): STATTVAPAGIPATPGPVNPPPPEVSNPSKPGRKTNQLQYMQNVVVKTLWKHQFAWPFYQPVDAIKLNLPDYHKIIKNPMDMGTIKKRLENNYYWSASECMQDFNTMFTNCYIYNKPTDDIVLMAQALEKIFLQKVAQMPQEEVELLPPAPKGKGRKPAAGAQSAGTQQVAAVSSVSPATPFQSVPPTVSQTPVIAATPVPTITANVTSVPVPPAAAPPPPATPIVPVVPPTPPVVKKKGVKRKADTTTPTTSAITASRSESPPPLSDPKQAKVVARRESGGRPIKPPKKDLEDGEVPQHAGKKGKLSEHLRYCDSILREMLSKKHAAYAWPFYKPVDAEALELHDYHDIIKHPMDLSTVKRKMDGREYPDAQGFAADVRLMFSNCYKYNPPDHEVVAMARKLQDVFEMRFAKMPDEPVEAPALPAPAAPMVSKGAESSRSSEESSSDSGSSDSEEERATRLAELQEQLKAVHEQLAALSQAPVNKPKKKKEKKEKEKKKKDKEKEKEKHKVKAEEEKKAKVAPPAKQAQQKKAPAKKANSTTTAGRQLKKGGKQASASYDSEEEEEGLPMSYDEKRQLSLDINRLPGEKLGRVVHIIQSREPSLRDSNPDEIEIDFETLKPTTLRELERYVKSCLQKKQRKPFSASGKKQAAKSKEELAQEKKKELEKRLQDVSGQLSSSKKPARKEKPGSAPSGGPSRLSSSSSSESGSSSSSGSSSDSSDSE

As for `COc1cc2c(cc1NS(=O)(=O)c1ccc(Br)cc1C)n(C)c(=O)n2C`, the ΔTm was determined as 0.2 °C in [1]; 0.2 °C in [2]; 1.6 °C in test [3]; 0.3 °C in test [5]; 0.4 °C in [6]; 0.2 °C in test [10]. For the same compound, the ΔTm in the test listed under Homo sapiens is 0.2 °C; in [11], 0.8 °C; in test [12], 1.8 °C; in test [13], 0.15 °C; in test [14] it was 0.1 °C. Also, the Activity in test [4] worked out at 112%; in [7], 92.6%. For the same compound, the deltaS on Peregrin (Homo sapiens) [8] is -0.012 kcal/mol/K. At Peregrin (Homo sapiens) [9], the TdeltaS is -3.34 kcal/mol.
